From ChEMBL document CHEMBL1133500, “Active site binding modes of HIV-1 integrase inhibitors” (J Med Chem, 2000)

Assays:
[1] = Inhibitory activity against ASV (avian sarcoma virus) integrase; Range 40-350 uM
[2] = molecular target: T1, Human immunodeficiency virus type 1 integrase (Human immunodeficiency virus 1, UniProt Q7ZJM1)
[3] = molecular target: T1, Human immunodeficiency virus type 1 integrase; remark: listed apart in the source

T1 sequence (Q7ZJM1 whole entry): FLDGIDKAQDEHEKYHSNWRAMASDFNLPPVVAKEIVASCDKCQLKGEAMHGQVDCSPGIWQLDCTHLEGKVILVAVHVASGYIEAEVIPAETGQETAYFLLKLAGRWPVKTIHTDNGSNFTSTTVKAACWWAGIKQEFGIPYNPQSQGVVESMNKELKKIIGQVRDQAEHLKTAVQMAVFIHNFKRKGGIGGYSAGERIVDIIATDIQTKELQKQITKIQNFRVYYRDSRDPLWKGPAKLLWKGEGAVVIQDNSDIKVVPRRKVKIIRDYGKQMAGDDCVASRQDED

Row | Compound | IC50 [1] [µM] | Kd [2] [µM] | IC50 [3] [µM]
1 | CC(=O)Nc1cc(S(=O)(=O)O)cc2cc(S(=O)(=O)O)cc(O)c12 | < 350 |  | 
2 | O=C1c2ccc(O)c(O)c2C(=O)c2c(O)ccc(O)c21 [QUINALIZARIN] |  | < 15 | < 17
